{"source": "patent US20070207993A1", "about": "“Molybdenum carbonyl complexes for treating rheumatoid arthritis and other inflammatory diseases” (Alfama - Investigacao e Desenvolvimetno De Productos …, priority 2005, published 2007)", "key": {"[1]": {"test": "Spontaneous CO release from suspensions (gas chromatography, TCD)", "assay_type": "physicochemical", "conditions": "dark; for Equivalents of CO released, H2O pH = 2.13: suspension in H2O pH 2.13, 37° C.; for Equivalents of CO released, H2O pH = 8.3: suspension in H2O pH 8.3, 37° C.; for Equivalents of CO released, RPMI: suspension in RPMI with 10% FBS; for Equivalents of CO released, RPMI / CO equivalents (average ± standard deviation) / Equivalents of CO released, Olive oil: 37° C.; for CO equivalents (average ± standard deviation): suspension in RPMI, eight independent assays; for Equivalents of CO released, Olive oil: suspension in olive oil", "procedure": "CO detection was carried out by Gas Chromatography using a thermal conductivity detector (TCD) for the quantification of CO and CO2. The experiments were done under an initial atmosphere of reconstituted air, free of CO and CO2. […] […] Samples were withdrawn with gas-tight Hamilton syringes after homogenization of the head-space at given time intervals, preferably 2 hours, 4 hours and 6 hours. […] The volumes of CO released are usually in the range between 0.5-3 mL.\nAs a possible result of the use of suspensions, the number of CO equivalents released in RPMI varied slightly. As an example of the possible variations, the average of eight independent assays done with suspensions of Compound I.1 is given in Table 2."}, "[2]": {"test": "CO release in the presence of reactive oxygen species (TBHP, H2O2, KO2)", "assay_type": "physicochemical", "conditions": "25° C., dark; for Equivalents of CO2 released, H2O2 / Equivalents of CO released, H2O2: H2O2 100:1, water; for Equivalents of CO2 released, KO2 / Equivalents of CO released, KO2: KO2 100:1, THF; for Equivalents of CO2 released, TBHP / Equivalents of CO released, TBHP: TBHP 100:1, water", "procedure": "The studies were done using the same method and apparatus described in Example 7 with the following modifications: RPMI/FBS was replaced by double distilled water in the experiments with H2O2 and TBHP and by tetrahydrofuran (THF) for the experiments with KO2; the temperature was kept at 25° C. The concentration of Compound I.1 was approximately 1 mM and the ration of concentrations of H2O2, TBHP and KO2 relative to Compound I.1 was 100:1. The amount of CO2 generated was also measured in the same experiment to ascertain the concurrent oxidation of coordinated CO. TBHP was added from a 70% aqueous solution and H2O2 from a 30% aqueous solution."}, "[3]": {"test": "Solubility in water and RPMI", "assay_type": "physicochemical"}, "[4]": {"system": "Sprague Dawley rats", "test": "Toxicity in vivo, 20-day daily dosing", "set-up": "species or system rat", "conditions": "80 mg/kg daily for 20 days, in olive oil", "procedure": "Compound I.1 was dissolved in olive oil and administered to Sprague Dawley rats at a daily dose of 80 mg/kg for 20 days. At the end of the treatment the rats were anesthetized, blood was collected and organ samples were fixed in formalin for histological analysis."}, "[5]": {"test": "CO release in vivo (CO-hemoglobin in blood by oximeter)", "conditions": "Balb/c mice, intraperitoneal, 100, 25 and 6.25 mg/kg, propylene glycol-water; 0, 30, 120 (330) minutes", "procedure": "Nine week old Balb/c mice with a body weight of about 20 g were injected by the intraperitoneal route with Compound I.1 dissolved in a propylene glycol-water mixture. Three doses (100, 25 and 6.25 mg/kg) were used. At various times after the administration of the Compound I.1 blood was collected and CO-hemoglobin levels were determined using an oximeter.\nCompound I.1 was administered intraperitonally to mice at a concentration of 100 mg/kg using propylene glycol/water ca.˜2:1 as vehicle. The amount of COHb (carboxyhemoglobin) was monitored with an oximeter in blood samples withdrawn at 0, 30, 120 and 330 minutes after administration. The results are shown in FIG. 9 and show a peaked level of CO after 30 minutes followed by a slow decline.\nCompound I.1 was encapsulated in methylated β-cyclodextrin, 2,3,6-tri-O-methyl-β-cyclodextrin, known in the art as TRIMEB, by a standard technique. The encapsulated Compound I.1@TRIMEB (“@” means “encapsulated in”) was administered intraperitonally to mice at a concentration of 30 mg/kg using phosphate buffered saline (PBS) as vehicle. The amount of COHb (carboxyhemoglobin) was monitored with an oximeter in blood samples withdrawn after 30, 60, 90 and 120 minutes after administration."}, "[6]": {"system": "Balb/c mice", "test": "Mortality in mice after injection of a lethal dose of LPS", "assay_type": "in vivo", "conditions": "LPS 10 mg/kg i.p., four i.p. injections of 20 mg/kg at -60, -30 min, +4 h, +9 h", "procedure": "Seventeen eight week old Balb/c mice received one intraperitoneal injection of LPS at a dose of 10 mg/kg at time zero. One group of eight mice received four intraperitoneal injections of Compound I.1, each at a dose of 20 mg/kg, at 60 and 30 minutes before LPS and at 4 hours and 9 hours after LPS. A second group of 9 mice received four intraperitoneal injections of vehicle (carboxymethylcellulose 0.5%, Tween80 0.5%) at 60 and 30 minutes before LPS and at 4 hrs and 9 hrs after LPS. Survival of the mice was monitored for 168 hours."}}}
{"smiles": "O=[C][Mo]([Br])([C]=O)([C]=O)([C]=O)[C]=O", "note": "[Compound I.1]", "values": [{"measurement": "Equivalents of CO released, H2O pH = 2.13", "setting": "[1]; 2 hours", "result": "0.98 equivalents of CO"}, {"measurement": "Equivalents of CO released, H2O pH = 2.13", "setting": "[1]; 4 hours", "result": "1.00 equivalents of CO"}, {"measurement": "Equivalents of CO released, H2O pH = 2.13", "setting": "[1]; 6 hours", "result": "0.93 equivalents of CO"}, {"measurement": "Equivalents of CO released, H2O pH = 8.3", "setting": "[1]; 2 hours", "result": "1.24 equivalents of CO"}, {"measurement": "Equivalents of CO released, H2O pH = 8.3", "setting": "[1]; 4 hours", "result": "1.03 equivalents of CO"}, {"measurement": "Equivalents of CO released, H2O pH = 8.3", "setting": "[1]; 6 hours", "result": "0.98 equivalents of CO"}, {"measurement": "Equivalents of CO released, RPMI", "setting": "[1]; 2 hours", "result": "1.82 equivalents of CO"}, {"measurement": "Equivalents of CO released, RPMI", "setting": "[1]; 4 hours", "result": "2.16 equivalents of CO"}, {"measurement": "Equivalents of CO released, RPMI", "setting": "[1]; 6 hours", "result": "2.27 equivalents of CO"}, {"measurement": "CO equivalents (average ± standard deviation)", "setting": "[1]; 0.5 hours", "result": "0.64 ± 0.11", "unit": "CO equivalents"}, {"measurement": "CO equivalents (average ± standard deviation)", "setting": "[1]; 1 hour", "result": "1.56 ± 0.13", "unit": "CO equivalents"}, {"measurement": "CO equivalents (average ± standard deviation)", "setting": "[1]; 2 hours", "result": "1.82 ± 0.01", "unit": "CO equivalents"}, {"measurement": "CO equivalents (average ± standard deviation)", "setting": "[1]; 3 hours", "result": "2.42 ± 0.38", "unit": "CO equivalents"}, {"measurement": "CO equivalents (average ± standard deviation)", "setting": "[1]; 4 hours", "result": "2.16 ± 0.13", "unit": "CO equivalents"}, {"measurement": "CO equivalents (average ± standard deviation)", "setting": "[1]; 5 hours", "result": "2.43 ± 0.39", "unit": "CO equivalents"}, {"measurement": "CO equivalents (average ± standard deviation)", "setting": "[1]; 6 hours", "result": "2.27 ± 0.21", "unit": "CO equivalents"}, {"measurement": "CO equivalents (average ± standard deviation)", "setting": "[1]; 7 hours", "result": "2.51 ± 0.00", "unit": "CO equivalents"}, {"measurement": "CO equivalents (average ± standard deviation)", "setting": "[1]; 24 hours", "result": "2.40 ± 0.00", "unit": "CO equivalents"}, {"measurement": "Equivalents of CO released, Olive oil", "setting": "[1]; 2 hours", "result": "0.08 equivalents of CO"}, {"measurement": "Equivalents of CO released, Olive oil", "setting": "[1]; 4 hours", "result": "0.25 equivalents of CO"}, {"measurement": "Equivalents of CO released, Olive oil", "setting": "[1]; 6 hours", "result": "0.53 equivalents of CO"}, {"measurement": "Equivalents of CO2 released, H2O2", "setting": "[2]; 1 h", "result": 0.41, "unit": "equivalents"}, {"measurement": "Equivalents of CO released, H2O2", "setting": "[2]; 1 h", "result": 1.08, "unit": "equivalents"}, {"measurement": "Equivalents of CO2 released, H2O2", "setting": "[2]; 3 h", "result": 0.80, "unit": "equivalents"}, {"measurement": "Equivalents of CO released, H2O2", "setting": "[2]; 3 h", "result": 1.49, "unit": "equivalents"}, {"measurement": "Equivalents of CO2 released, H2O2", "setting": "[2]; 5 h", "result": 0.90, "unit": "equivalents"}, {"measurement": "Equivalents of CO released, H2O2", "setting": "[2]; 5 h", "result": 1.46, "unit": "equivalents"}, {"measurement": "Equivalents of CO2 released, H2O2", "setting": "[2]; 24 h", "result": 0.89, "unit": "equivalents"}, {"measurement": "Equivalents of CO released, H2O2", "setting": "[2]; 24 h", "result": 1.43, "unit": "equivalents"}, {"measurement": "Equivalents of CO2 released, KO2", "setting": "[2]; 1 h", "result": 0.00, "unit": "equivalents"}, {"measurement": "Equivalents of CO released, KO2", "setting": "[2]; 1 h", "result": 1.94, "unit": "equivalents"}, {"measurement": "Equivalents of CO2 released, KO2", "setting": "[2]; 3 h", "result": 0.00, "unit": "equivalents"}, {"measurement": "Equivalents of CO released, KO2", "setting": "[2]; 3 h", "result": 3.22, "unit": "equivalents"}, {"measurement": "Equivalents of CO2 released, KO2", "setting": "[2]; 5 h", "result": 0.00, "unit": "equivalents"}, {"measurement": "Equivalents of CO released, KO2", "setting": "[2]; 5 h", "result": 2.54, "unit": "equivalents"}, {"measurement": "Equivalents of CO2 released, KO2", "setting": "[2]; 24 h", "result": 0.00, "unit": "equivalents"}, {"measurement": "Equivalents of CO released, KO2", "setting": "[2]; 24 h", "result": 2.29, "unit": "equivalents"}, {"measurement": "Equivalents of CO2 released, TBHP", "setting": "[2]; 1 h", "result": 0.51, "unit": "equivalents"}, {"measurement": "Equivalents of CO released, TBHP", "setting": "[2]; 1 h", "result": 2.51, "unit": "equivalents"}, {"measurement": "Equivalents of CO2 released, TBHP", "setting": "[2]; 3 h", "result": 0.95, "unit": "equivalents"}, {"measurement": "Equivalents of CO released, TBHP", "setting": "[2]; 3 h", "result": 3.77, "unit": "equivalents"}, {"measurement": "Equivalents of CO2 released, TBHP", "setting": "[2]; 5 h", "result": 1.07, "unit": "equivalents"}, {"measurement": "Equivalents of CO released, TBHP", "setting": "[2]; 5 h", "result": 3.94, "unit": "equivalents"}, {"measurement": "Equivalents of CO2 released, TBHP", "setting": "[2]; 24 h", "result": 1.13, "unit": "equivalents"}, {"measurement": "Equivalents of CO released, TBHP", "setting": "[2]; 24 h", "result": 3.93, "unit": "equivalents"}, {"measurement": "solubility in water and RPMI", "setting": "[3]", "result": "low solubility"}, {"measurement": "histologic analysis of liver, kidney, heart, and spleen", "setting": "[4]", "result": "did not reveal any gross alterations"}, {"measurement": "serum creatinine", "setting": "[4]", "result": "in the normal range"}, {"measurement": "serum glutamic oxalacetic transaminase (sGOT)", "setting": "[4]", "result": "in the normal range"}, {"measurement": "serum glutamic pyruvic transaminase (sGPT)", "setting": "[4]", "result": "in the normal range"}, {"measurement": "serum urea", "setting": "[4]", "result": "in the normal range"}, {"measurement": "signs of liver or kidney toxicity", "setting": "[4]", "result": "No signs of liver or kidney toxicity"}, {"measurement": "CO-hemoglobin level time course", "setting": "[5]", "result": "increase in CO levels during the first time interval, followed by a slow decline"}, {"measurement": "mice alive at 168 hours following LPS injection", "setting": "[6]", "result": "three of the eight"}]}
